From US12011497B2, “Compounds, compositions containing same, and use thereof for promoting hair growth” (Molgenbio Co. Ltd., priority 2018, dated 2024)
≈ marks a conversion by molar mass, not a printed value.

test system: CD4+ T cells; assay: in vitro T cell activity assay (CTV-stained CD4+ T cell proliferation, flow cytometry); format: cell-based; conditions: B6J mouse spleen CD4+ T cells activated with CD3/CD28 Dynabeads, 72 hours incubation, 0.01-1000 ng/mL, CTV intensity
Excerpt: The degrees of decreases in immunosuppressive activity of the nine novel compounds were identified by a known in vitro T cell activity assay (J. Immunol. 143:718-726, 1989).
CD4+ T cell division is an indicator of immune response. When CD4+ T cells stained with Cell Trace™ Violet (CTV) proliferate by immune responses, the amount of CTV of each cell decreases, and thus the degrees of immunosuppressive activity were identified using this as an indicator.
Single cells were isolated from spleen of 6- to 8-week-old B6J experimental mice, and CD4+ T cells were isolated using a MagniSort® Mouse CD4 T cell Enrichment Kit (eBioscience). CD4+ T cells were stained with a Cell Trace™ Violet (CTV) Cell Proliferation Kit (Molecular Probes), and FK506 or the nine novel compounds were added thereto in concentrations of 0.01 ng/mL, 0.1 ng/mL, 1 ng/mL, 10 ng/mL, 100 ng/mL, and 1000 ng/mL, respectively, followed by incubation for 72 hours. In order to activate T cells, Dynabeads® Mouse T-Activator CD3/CD28 (Gibco) was used. As a control, inactivated T cells were used. After incubation, CTV intensity was analyzed by flow cytometry.
Table 12 below and FIG. 55 show the degrees of T cell proliferation based on CTV intensities measured using a flow cytometer, indicating the degrees of immunosuppressive activity of FK506 and the nine novel compounds.

Compound	Immunosuppression IC50 [ng/mL]
C=CC[C@@H]1/C=C(\C)C[C@H](C)C[C@H](OC)[C@H]2O[C@@](O)(CC(=O)N3CCCC[C@H]3C(=O)O[C@H](/C(C)=C/C3CC[C@@H](O)[C@H](OC)C3)[C@H](C)[C@H](O)CC1=O)[C@H](C)C[C@@H]2OC (stereo partly drawn) [9-deoxo-FK506, reference compound]	0.513
CCC[C@@H]1/C=C(\C)C[C@H](C)C[C@H](OC)[C@H]2O[C@@](O)(C(=O)C(=O)N3CCCC[C@H]3C(=O)O[C@H](/C(C)=C/[C@@H]3CC[C@@H](O)[C@H](O)C3)[C@H](C)[C@@H](O)CC1=O)[C@H](C)C[C@@H]2OC [31-O-demethyl-36,37-dihydro-FK506]	1.723
CCCC1C=C(C)CC(C)CC(OC)C2OC(O)(CC(=O)N3CCCCC3C(=O)OC(C(C)=CC3CCC(O)C(O)C3)C(C)C(O)CC1=O)C(C)CC2OC (stereo not drawn) [9-deoxo-31-O-demethyl-36,37-dihydro-FK506]	45.87
C=CC[C@@H]1/C=C(/C)C[C@H](C)C[C@H](OC)[C@H]2O[C@@](O)(CC(=O)N3CCCC[C@H]3C(=O)O[C@H](/C(C)=C/[C@@H]3CC[C@@H](O)[C@H](O)C3)[C@H](C)[C@@H](O)CC1=O)[C@H](C)C[C@@H]2OC [9-deoxo-31-O-demethyl-FK506, reference compound]	15.09
CC[C@@H]1/C=C(\C)C[C@H](C)C[C@H](OC)[C@H]2O[C@@](O)(C(=O)C(=O)N3CCCC[C@H]3C(=O)O[C@H](/C(C)=C/[C@@H]3CC[C@@H](O)[C@H](O)C3)[C@H](C)[C@@H](O)CC1=O)[C@H](C)C[C@@H]2OC [31-O-demethyl-FK520]	3.273
CC[C@@H]1/C=C(\C)C[C@H](C)C[C@H](OC)[C@H]2O[C@@](O)(CC(=O)N3CCCC[C@H]3C(=O)O[C@H](/C(C)=C/[C@@H]3CC[C@@H](O)[C@H](O)C3)[C@H](C)[C@@H](O)CC1=O)[C@H](C)C[C@@H]2OC [9-deoxo-31-O-demethyl-FK520]	258.1
C=CCC1/C=C(\C)CC(C)CC(OC)C2OC(O)(C(=O)C(=O)N3CCCCC3C(=O)OC(/C(C)=C/C3CCC(O)C(O)C3)C(C)C(O)CC1=O)C(C)CC2OC (stereo not drawn) [31-O-demethyl-FK506, reference compound]	0.246
9-deoxo-31-O-demethyl-prolyl-FK506	886.5
CCC1C=C(C)CC(C)CC(OC)C2OC(O)(CC(=O)N3CCCCC3C(=O)OC(C(C)=CC3CCC(O)C(OC)C3)C(C)C(O)CC1=O)C(C)CC2OC (stereo not drawn) [9-deoxo-FK520]	24.98
COC1CC(C=C(C)C2OC(=O)C3CCCCN3C(=O)CC3(O)OC(C(OC)CC(C)CC(C)=CC(C)C(=O)CC(O)C2C)C(OC)CC3C)CCC1O (stereo not drawn) [9-deoxo-FK523]	1985
9-deoxo-prolyl-FK506 [reference compound]	268.3
CO[C@H]1C[C@@H](C)C/C(C)=C/[C@@H](C)C(=O)C[C@H](O)[C@@H](C)[C@@H](/C(C)=C/[C@@H]2CC[C@@H](O)[C@H](O)C2)OC(=O)[C@@H]2CCCCN2C(=O)C[C@]2(O)O[C@H]1[C@@H](OC)C[C@H]2C [9-deoxo-31-O-demethyl-FK523]	3378
CCCC1C=C(C)CC(C)CC(OC)C2OC(O)(CC(=O)N3CCCCC3C(=O)OC(C(C)=CC3CCC(O)C(OC)C3)C(C)C(O)CC1=O)C(C)CC2OC (stereo not drawn) [9-deoxo-36,37-dihydro-FK506]	14.1

same assay, conditions: B6J mouse spleen CD4+ T cells activated with CD3/CD28 Dynabeads, 72 hours incubation, 0.01-1000 ng/mL, CTV intensity; read-out: Immunosuppression IC50

Compound	IC50 [ng/mL]
C=CC[C@@H]1/C=C(\C)C[C@H](C)C[C@H](OC)[C@H]2O[C@@](O)(C(=O)C(=O)N3CCCC[C@H]3C(=O)O[C@H](/C(C)=C/[C@@H]3CC[C@@H](O)[C@H](OC)C3)[C@H](C)[C@@H](O)CC1=O)[C@H](C)C[C@@H]2OC [FK506, reference compound]	0.027 (≈ 0.0336 nM)

test system: vibrissae tissue of mice; assay: hair growth-promoting activity in cultured isolated mouse vibrissae; format: cell-based; conditions: histology of cultured treated vibrissae, FIG. 58
Description: Hair growth-promoting activity of the nine novel compounds of the present invention relative to that of the parent drug (FK506) was evaluated using vibrissae tissue of mice. The mouth and mouth tissue (whisker pad) around the mouth where thick hair grows were peeled off from each of 6- to 8-week-old experimental black mouse (C57BL/6 mouse) and treated with […] for a short time of several seconds. The treated mouth tissue was prepared in a state of being immersed in phosphate-buffered saline (PBS) supplemented with 1% penicillin/streptomycin (P/S) on ice. Surrounding subcutaneous fat tissue and connective tissue were removed using forceps and blades while observing the prepared mouth tissue using a dissecting microscope to expose vibrissae tissue. […] Based on the results, it was confirmed that the composition for promoting hair growth, including at least one of the nine novel compounds of the present invention as an active ingredient, had the effects on promoting hair growth as desired, and thus it was determined that the composition may be effectively used for preventing and treating hair loss.

Compound	expression of growth marker (Ki67) of cells compared to an untreated group
CC[C@@H]1/C=C(\C)C[C@H](C)C[C@H](OC)[C@H]2O[C@@](O)(CC(=O)N3CCCC[C@H]3C(=O)O[C@H](/C(C)=C/[C@@H]3CC[C@@H](O)[C@H](O)C3)[C@H](C)[C@@H](O)CC1=O)[C@H](C)C[C@@H]2OC [9-deoxo-31-O-demethyl-FK520]	overexpressed
